Experimental data reported in BindingDB's records for doi:10.1021/jm980621r (Ligand Pharmaceuticals, 1999).

Experiments:
[1] = target: T1, Retinoic acid receptor RXR-beta (Homo sapiens, UniProt P28702); experiment: Transcriptional activity was evaluated in CV-1 cells transfected with expression vector for Retinoic acid receptor RXR-beta
T1 sequence (P28702 whole entry): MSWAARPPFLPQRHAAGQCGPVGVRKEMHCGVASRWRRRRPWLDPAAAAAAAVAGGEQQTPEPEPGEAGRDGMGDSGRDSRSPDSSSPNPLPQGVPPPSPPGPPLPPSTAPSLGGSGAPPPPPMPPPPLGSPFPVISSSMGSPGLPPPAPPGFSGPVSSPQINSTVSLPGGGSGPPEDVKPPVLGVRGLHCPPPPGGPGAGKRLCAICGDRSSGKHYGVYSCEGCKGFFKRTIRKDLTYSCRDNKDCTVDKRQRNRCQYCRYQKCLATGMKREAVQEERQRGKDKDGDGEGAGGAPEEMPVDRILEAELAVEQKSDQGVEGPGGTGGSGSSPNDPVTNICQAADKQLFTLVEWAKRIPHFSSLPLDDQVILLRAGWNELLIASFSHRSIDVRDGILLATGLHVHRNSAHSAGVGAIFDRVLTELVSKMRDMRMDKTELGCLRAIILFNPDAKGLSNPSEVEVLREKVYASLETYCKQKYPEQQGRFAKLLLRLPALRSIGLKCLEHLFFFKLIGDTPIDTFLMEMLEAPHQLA

[2] = target: T2, Retinoic acid receptor RXR-gamma (Homo sapiens, UniProt P48443); experiment: Transcriptional activity was evaluated in CV-1 cells transfected with expression vector for Retinoic acid receptor RXR-gamma
T2 sequence (P48443 whole entry): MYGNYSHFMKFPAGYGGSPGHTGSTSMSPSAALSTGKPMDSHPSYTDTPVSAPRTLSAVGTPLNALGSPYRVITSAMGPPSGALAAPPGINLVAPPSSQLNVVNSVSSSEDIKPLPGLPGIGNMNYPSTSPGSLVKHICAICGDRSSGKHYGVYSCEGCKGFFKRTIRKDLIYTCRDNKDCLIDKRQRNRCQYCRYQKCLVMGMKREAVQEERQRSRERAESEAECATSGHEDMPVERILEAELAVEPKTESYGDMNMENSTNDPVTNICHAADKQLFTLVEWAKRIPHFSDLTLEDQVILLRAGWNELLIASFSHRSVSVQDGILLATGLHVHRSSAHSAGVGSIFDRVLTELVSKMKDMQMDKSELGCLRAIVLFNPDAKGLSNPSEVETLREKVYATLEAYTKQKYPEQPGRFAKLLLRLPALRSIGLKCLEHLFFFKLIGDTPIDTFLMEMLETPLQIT

[3] = target: T3, Retinoic acid receptor RXR-alpha (Homo sapiens, UniProt P19793); experiment: Transcriptional activity was evaluated in CV-1 cells transfected with expression vector for Retinoic acid receptor RXR-alpha
T3 sequence (P19793 whole entry): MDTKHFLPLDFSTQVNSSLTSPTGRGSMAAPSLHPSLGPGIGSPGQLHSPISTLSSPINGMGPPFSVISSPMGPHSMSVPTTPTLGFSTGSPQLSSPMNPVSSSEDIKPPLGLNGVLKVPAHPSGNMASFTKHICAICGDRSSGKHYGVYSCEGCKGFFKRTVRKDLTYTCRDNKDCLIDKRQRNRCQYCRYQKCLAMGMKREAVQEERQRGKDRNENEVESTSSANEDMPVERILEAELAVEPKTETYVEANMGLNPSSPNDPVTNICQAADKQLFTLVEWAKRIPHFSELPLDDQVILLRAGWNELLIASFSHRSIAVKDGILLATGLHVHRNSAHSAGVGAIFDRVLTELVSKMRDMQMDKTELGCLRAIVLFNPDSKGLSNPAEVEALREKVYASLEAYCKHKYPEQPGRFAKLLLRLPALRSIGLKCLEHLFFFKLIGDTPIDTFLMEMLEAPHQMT

[4] = target: T1, Retinoic acid receptor RXR-beta; experiment: Binding affinity towards recombinantly expressed Retinoic acid receptor RXR-beta in baculoviral system, by using 5 nM [3H]targretin in a competitive binding assay

EC50 [1]: 165 nM | EC50 [2]: 34 nM | EC50 [3]: 46 nM | Ki [4]: 120 nM
Compound: CCO/N=C(/c1ccc(C(=O)O)cc1)c1cc2c(cc1C)C(C)(C)CCC2(C)C
